In ChEMBL document CHEMBL3639129, “Compounds having CRTH2 antagonist activity” (2013):

Target: T1, Prostaglandin D2 receptor 2 (Homo sapiens, UniProt Q9Y5Y4)
T1 sequence (Q9Y5Y4 whole entry): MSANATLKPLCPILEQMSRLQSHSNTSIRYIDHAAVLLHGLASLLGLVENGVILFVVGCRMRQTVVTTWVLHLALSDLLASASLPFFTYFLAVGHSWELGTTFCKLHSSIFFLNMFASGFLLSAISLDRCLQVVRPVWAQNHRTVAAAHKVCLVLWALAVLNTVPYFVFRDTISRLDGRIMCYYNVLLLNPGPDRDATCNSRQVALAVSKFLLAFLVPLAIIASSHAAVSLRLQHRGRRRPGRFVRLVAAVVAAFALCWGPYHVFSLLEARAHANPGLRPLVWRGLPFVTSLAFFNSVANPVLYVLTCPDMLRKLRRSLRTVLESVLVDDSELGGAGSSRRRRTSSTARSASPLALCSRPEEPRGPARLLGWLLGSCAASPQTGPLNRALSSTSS
Experiment: Radioligand Binding Assay: Radioligand binding assay using CRTH2.

Row | Ki | SMILES
1 | 2 nM | Cc1c(Cc2cccnc2S(=O)(=O)c2ccc(F)cc2)c2cc(F)ccc2n1CC(=O)O
2 | 7 nM | Cc1c(Cc2cccnc2S(=O)(=O)c2ccc(Cl)cc2)c2cc(F)ccc2n1CC(=O)O
